The target of data set [1] is T1, progesterone receptor (PR) (Homo sapiens, UniProt P06401).
T1 construct: alkaline phosphatase assay with the T47D human breast cancer cell line; endogenous in cells; host or cells: T47D
T1 sequence (P06401 1-933): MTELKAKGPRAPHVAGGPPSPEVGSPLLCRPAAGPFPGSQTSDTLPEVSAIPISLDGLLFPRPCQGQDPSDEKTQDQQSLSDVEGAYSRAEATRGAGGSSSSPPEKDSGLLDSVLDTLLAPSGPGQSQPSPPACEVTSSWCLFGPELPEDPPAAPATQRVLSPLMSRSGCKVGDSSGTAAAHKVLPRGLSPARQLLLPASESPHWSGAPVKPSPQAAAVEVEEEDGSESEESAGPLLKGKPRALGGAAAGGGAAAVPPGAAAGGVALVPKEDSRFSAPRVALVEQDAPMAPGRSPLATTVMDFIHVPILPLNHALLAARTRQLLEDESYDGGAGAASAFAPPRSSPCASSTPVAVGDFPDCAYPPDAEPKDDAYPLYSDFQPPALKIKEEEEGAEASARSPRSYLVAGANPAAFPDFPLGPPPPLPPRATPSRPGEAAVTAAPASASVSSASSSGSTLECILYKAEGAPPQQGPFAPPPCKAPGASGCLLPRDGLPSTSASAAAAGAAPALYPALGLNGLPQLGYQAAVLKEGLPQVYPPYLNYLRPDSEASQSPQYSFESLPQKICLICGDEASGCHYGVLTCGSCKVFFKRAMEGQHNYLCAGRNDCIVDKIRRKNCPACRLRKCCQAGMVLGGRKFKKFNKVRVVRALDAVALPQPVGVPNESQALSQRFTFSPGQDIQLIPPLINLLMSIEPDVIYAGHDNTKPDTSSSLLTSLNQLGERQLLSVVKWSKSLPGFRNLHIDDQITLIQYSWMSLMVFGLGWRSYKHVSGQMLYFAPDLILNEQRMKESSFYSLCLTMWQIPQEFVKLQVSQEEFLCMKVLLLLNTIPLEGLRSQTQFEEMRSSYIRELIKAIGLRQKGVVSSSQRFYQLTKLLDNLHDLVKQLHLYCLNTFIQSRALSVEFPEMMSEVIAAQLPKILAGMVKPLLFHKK
The data set is described as follows: T47D alkaline phosphatase assay, PR antagonistic activity in the presence of 1 nM P4. Format: cell-based. The conditions noted are these: T47D cells; for IC50: 1.0 nM P4, 48 h, mean ± SD from three independent experiments; for PR antagonistic activity (in words): in the presence of 1 nM P4. How it is done:
The PR agonistic and antagonistic activities of the synthesized phosphine–borane derivatives were evaluated using an alkaline phosphatase assay with the T47D human breast cancer cell line. […] The basal alkaline phosphatase activity was also not affected by the tested compounds alone. […] The PR antagonistic activities of the compounds were assessed in the presence of 1 nM of P4 (5). We also calculated the molecular volume of each compound to investigate the structure–activity relationship (SAR). Table 2 summarizes the PR antagonistic activity and calculated volumes of the synthesized compounds. […] We investigated the binding affinity of the compounds toward the PR ligand-binding domain (LBD) using a fluorescence polarization assay system. […] We also investigated the activity of compounds 28 and 34 toward the androgen receptor (AR) by means of cell-proliferation promoting/inhibitory activity toward androgen-dependent SC-3 cells. […].
T47D alkaline phosphatase assays were performed as previously described, with minor modifications. Briefly, the human breast cancer cell line T47D (HMS LINCS database Accession Numbers: 50541) was routinely cultivated in RPMI 1640 medium with 10% FBS at 37 °C in a 5% CO2 humidified incubator. The cells were plated in 96-well plates and incubated overnight in a 5% CO2 humidified incubator at 37 °C. The next day, the cells were treated with a fresh medium containing the test compound in the presence of 1 nM of progesterone and further incubated for 48 h. The medium was aspirated, and the cells were fixed with 100 μL of 1.8% formalin–PBS. The fixed cells were washed with PBS, and 100 μL of an assay buffer (1 mg/mL p-nitrophenol phosphate in diethanolamine water solution, pH 9.0) was added. The mixture was incubated at room temperature for 2 h under light-shielded conditions. The absorbance was measured at 405 nm using a DTX 880 Multimode Detector (Beckman Coulter, Brea, CA, USA). All data points were measured in triplicate, and IC50 values were calculated from three independent experiments.

Data set [2] in a line: LogP (1-octanol/water partition coefficient) determined using HPLC. Format: physicochemical. How it is done:
Hydrophobicity is a key determinant of the activity and pharmacokinetics of biologically active compounds, and the octanol–water partition coefficient (P) and logarithm value (LogP) are widely used hydrophobicity parameters. The LogP values of the synthesized compounds were determined using HPLC [45, 46]. Table 1 summarizes the experimentally determined LogP values and calculated values. […] From the viewpoint of the phosphine structure, an increase in the number of carbon atoms increased hydrophobicity in a predictable manner.
The 1-octanol/water partition coefficient P was determined using HPLC based on the OECD Guideline for Testing Chemicals. A COSMOSIL Packed Column 5C18-MS-II (5 μm, 150 mm × 4.6 mm id, Nacalai Tesque, Inc., Kyoto, Japan) was fitted on an HPLC instrument (Multiwavelength Detector, MD-2010 Plus. JASCO, Tokyo, Japan) equipped with a pump (PU-2080, JASCO) and an oven (SSC-2120, Senshu Scientific Co., Ltd., Tokyo, Japan). The injection volume was 20 µL; the mobile phase was methanol–water 75% (v/v); and the flow rate was 1.0 mL/min in all cases. Compounds were detected by measuring the UV absorption at 240 nm. The temperature of the column was kept at 40.0 (± 0.1) °C during the measurement. The measurement was performed in triplicate, and the mean value was calculated. The dead time t0 was measured with thiourea as the unretained compound, and the capacity factor k was calculated using the equation logk = log (tr − t0/t0), where tr represents the retention time of the compound. A calibration graph was determined experimentally using reference compounds (4-methylphenol, 4-chlorophenol, 4-phenylphenol, diphenylether, fluoranthene, and dichlorodiphenyltrichloroethane) with known logP values. The LogP values of phosphine–boranes were calculated based on a calibration graph (LogP = 2.6269 logkw + 3.059, R^2 = 0.9915).

Setting [3] is: HPLC (OECD guideline), C18 column, methanol–water 75% (v/v), 40 °C, mean of triplicate.
Where [4] appears, read: HPLC, tentative value: hydrophobicity beyond the range of the reference compounds (1.9 < LogP < 6.5).

The structures appear in SMILES notation. A value given as a limit tells only on which side of the number the result lay.

On to `C[P+](C)(C)[BH2-]c1cccc(C(F)(F)F)c1` [Compound 16, B-3-(Trifluoromethyl)phenyl Trimethylphosphine–Borane], for which, in data set [1], the IC50 was more than 10000 nM and the “PR antagonistic activity (in words)” value is on record as “only weak potency”. Besides, in data set [2] (setting [3]), the chromatographic logP came to 3.65.
`C[P+](C)([BH2-]c1cccc(C(F)(F)F)c1)c1ccccc1` [Compound 17, B-(3-Trifluoromethyl)phenyl Dimethyl(phenyl)phosphine–Borane] showed a melting point of 75 to 75.8 °C. Moreover, in data set [1], the half-inhibitory concentration (IC50) was determined as 1160 ± 600 nM and the “PR antagonistic activity (in words)” value is “potent activities”. The chromatographic logP in data set [2] (setting [3]) is 4.54.
In the case of `CC[P+]([BH2-]c1cccc(C(F)(F)F)c1)(CC)CC` [Compound 18, B-3-(Trifluoromethyl)phenyl Triethylphosphine–Borane], in data set [1], the half-maximal inhibitory concentration (IC50) was 3670 ± 3340 nM and the “PR antagonistic activity (in words)” value was “moderate PR antagonistic activity”. Also, the chromatographic logP in data set [2] (setting [3]) is 4.88.
Consider `CC[P+]([BH2-]c1cccc(C(F)(F)F)c1)(CC)c1ccccc1` [Compound 19, B-3-(Trifluoromethyl)phenyl Diethyl(phenyl)phosphine–Borane], for which the melting point was in the range of 40 to 40.5 °C. In addition, in data set [1], the IC50 was determined as 1120 ± 220 nM and the “PR antagonistic activity (in words)” value is “potent activities”. The same compound showed a chromatographic logP in data set [2] (setting [3]) of 5.24.
With `CC(C)[P+]([BH2-]c1cccc(C(F)(F)F)c1)(C(C)C)C(C)C` [Compound 20, B-3-(Trifluoromethyl)phenyl Triisopropylphosphine–Borane], in data set [1], the IC50 worked out at 1350 ± 470 nM and the “PR antagonistic activity (in words)” value is on record as “potent activities”. In addition, in data set [2] (setting [3]), the chromatographic logP stood at 5.89.
Turning to `CC(C)[P+]([BH2-]c1cccc(C(F)(F)F)c1)(c1ccccc1)C(C)C` [Compound 21, B-3-(Trifluoromethyl)phenyl Diisopropyl(phenyl)phosphine–Borane], the melting point was 118.7 to 119.1 °C. Also, in data set [1], the IC50 is 3350 ± 1490 nM and the “PR antagonistic activity (in words)” value is on record as “moderate PR antagonistic activity”. In addition, the chromatographic logP in data set [2] (setting [3]) turned out to be 5.93.
Turning to `FC(F)(F)c1cccc([BH2-][P+](C2CC2)(C2CC2)C2CC2)c1` [Compound 22, B-3-(Trifluoromethyl)phenyl Tricyclopropylphosphine–Borane], in data set [1], the IC50 came out at 650 ± 170 nM and the “PR antagonistic activity (in words)” value is recorded as “potent activities”. Further, the chromatographic logP in data set [2] (setting [3]) amounted to 5.21.
For `CCCC[P+]([BH2-]c1cccc(C(F)(F)F)c1)(CCCC)CCCC` [Compound 23, B-3-(Trifluoromethyl)phenyl Tri-n-Butylphosphine–Borane], in data set [1], the IC50 was more than 10000 nM and the “PR antagonistic activity (in words)” value was “only weak potency”. This compound displayed a chromatographic logP in data set [2] (setting [4]) of 7.34.
The matching figures for `FC(F)(F)c1cccc([BH2-][P+](C2CCCC2)(C2CCCC2)C2CCCC2)c1` [Compound 24, B-3-(Trifluoromethyl)phenyl Tricyclopentylphosphine–Borane]: 6640 ± 870 nM, “moderate PR antagonistic activity” and 7.84.
Turning to `FC(F)(F)c1cccc([BH2-][P+](C2CCCCC2)(C2CCCCC2)C2CCCCC2)c1` [Compound 25, B-3-(Trifluoromethyl)phenyl Tricyclohexylphosphine–Borane], the melting point fell in the range of 100 to 100.5 °C. Besides, in data set [1], the IC50 was more than 10000 nM and the “PR antagonistic activity (in words)” value is reported as “only weak potency”. The chromatographic logP in data set [2] (setting [4]) stood at 8.69.
On to `FC(F)(F)c1cccc([BH2-][PH+](C2CCCCC2)C2CCCCC2)c1` [Compound 26, B-3-(Trifluoromethyl)phenyl Dicyclohexylphosphine–Borane], for which the chromatographic logP in data set [2] (setting [4]) worked out at 7.28.
For `CN(C)[P+]([BH2-]c1cccc(C(F)(F)F)c1)(N(C)C)N(C)C` [Compound 27, B-3-(Trifluoromethyl)phenyl Tris(dimethylamino)phosphine–Borane], in data set [1], the IC50 stood at 1200 ± 630 nM and the “PR antagonistic activity (in words)” value is on record as “potent activities”. In addition, the chromatographic logP in data set [2] (setting [3]) came out at 5.39.
Turning to `C[P+](C)([BH2-]c1ccc(C(F)(F)F)cc1)c1ccccc1` [Compound 29, B-4-(Trifluoromethyl)phenyl Dimethyl(phenyl)phosphine–Borane], the melting point lay within 78 to 78.3 °C. The IC50 in data set [1] was found to be 1610 ± 870 nM. The compound further yielded a chromatographic logP in data set [2] (setting [3]) of 4.65.
Regarding `CC[P+]([BH2-]c1ccc(C(F)(F)F)cc1)(CC)CC` [Compound 30, B-4-(Trifluoromethyl)phenyl Triethylphosphine–Borane], the IC50 in data set [1] came to 1760 ± 1440 nM. This compound also came in with a chromatographic logP in data set [2] (setting [3]) of 4.99.
The compound `CC[P+]([BH2-]c1ccc(C(F)(F)F)cc1)(CC)c1ccccc1` [Compound 31, B-4-(Trifluoromethyl)phenyl Diethyl(phenyl)phosphine–Borane] yielded a melting point of 62 to 62.3 °C. In addition, the half-inhibitory concentration (IC50) in data set [1] was 1780 ± 970 nM. The chromatographic logP in data set [2] (setting [3]) was determined as 5.41.
Take `CC(C)[P+]([BH2-]c1ccc(C(F)(F)F)cc1)(C(C)C)C(C)C` [Compound 32, B-4-(Trifluoromethyl)phenyl Triisopropylphosphine–Borane]: the melting point fell in the range of 59 to 59.4 °C. For the same compound, the half-inhibitory concentration (IC50) in data set [1] turned out to be 1510 ± 530 nM. This compound also came in with a chromatographic logP in data set [2] (setting [3]) of 6.06.
The matching figures for `CC(C)[P+]([BH2-]c1ccc(C(F)(F)F)cc1)(c1ccccc1)C(C)C` [Compound 33, B-4-(Trifluoromethyl)phenyl Diisopropyl(phenyl)phosphine–Borane]: 94.8 to 95.2 °C, 2010 ± 580 nM and 6.15.
As to `FC(F)(F)c1ccc([BH2-][PH+](C2CCCCC2)C2CCCCC2)cc1` [Compound 38, B-4-(Trifluoromethyl)phenyl Dicyclohexylphosphine–Borane], the melting point lay within 52.7 to 53.7 °C. The compound further gave a chromatographic logP in data set [2] (setting [4]) of 7.34.

These data come from paper PMC11013038, “Design, Synthesis, and Evaluation of B-(Trifluoromethyl)phenyl Phosphine–Borane Derivatives as Novel Progesterone Receptor Antagonists” (Molecules, 2024).
